Like-named read-outs stand apart in the source and are kept apart here.

The target of one test is humanDOR (Homo sapiens (Human), UniProt P41143). Put plainly: Receptor binding, [3H]diprenorphine.
The target in another test is hKOR (Homo sapiens (Human), UniProt P41145). Kind of test: Receptor binding, [3H]diprenorphine.
The next test concerns the target MOR (Homo sapiens (Human), UniProt P35372). Kind of test: Receptor binding, [3H]diprenorphine.
The next test has as its target μOR (Homo sapiens (Human), UniProt P35372). Kind of test: cell-based. Format: cell-based.
The target in test [1] is human μOR β-arrestin2 recruitment + GRK2 (Homo sapiens (Human), UniProt P35372). Kind of test: β-Arrestin2 recruitment with GRK2 co-expression (BRET). Format: cell-based. The conditions noted are these: GRK2 co-expressed. In general terms: Arrestin recruitment assays detect the binding of arrestin to an activated receptor.
Test [2] concerns the target μOR β-arrestin2 recruitment (Homo sapiens (Human), UniProt P35372). Kind of test: β-Arrestin2 recruitment without GRK2 co-expression (BRET). It is filed as cell-based.
Setting [3] is: read-out: binding affinity Ki [nM] hDOR.

Sequence of hKOR (P41145 whole entry): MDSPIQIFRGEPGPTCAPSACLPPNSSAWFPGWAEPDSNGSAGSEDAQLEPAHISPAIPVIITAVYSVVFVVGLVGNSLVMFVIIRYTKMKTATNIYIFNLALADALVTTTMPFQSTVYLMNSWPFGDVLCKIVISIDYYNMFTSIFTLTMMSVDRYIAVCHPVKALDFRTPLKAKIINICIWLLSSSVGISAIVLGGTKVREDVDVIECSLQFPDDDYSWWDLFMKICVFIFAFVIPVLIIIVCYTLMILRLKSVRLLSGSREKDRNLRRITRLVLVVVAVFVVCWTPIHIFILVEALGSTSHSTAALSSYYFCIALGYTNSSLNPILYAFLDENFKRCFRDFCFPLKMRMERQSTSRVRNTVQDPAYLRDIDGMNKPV
Sequence of MOR (P35372 whole entry): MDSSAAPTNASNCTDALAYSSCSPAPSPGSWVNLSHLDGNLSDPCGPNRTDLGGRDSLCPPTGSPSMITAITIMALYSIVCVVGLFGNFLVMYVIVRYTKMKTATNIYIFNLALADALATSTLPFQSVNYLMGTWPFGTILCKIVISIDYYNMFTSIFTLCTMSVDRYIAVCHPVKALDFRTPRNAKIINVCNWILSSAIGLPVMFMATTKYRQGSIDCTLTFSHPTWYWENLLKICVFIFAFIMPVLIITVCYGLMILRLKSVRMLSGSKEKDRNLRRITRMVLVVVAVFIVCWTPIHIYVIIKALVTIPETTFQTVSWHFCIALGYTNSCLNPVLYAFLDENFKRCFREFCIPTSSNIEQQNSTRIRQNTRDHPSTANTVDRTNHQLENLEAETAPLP
Sequence of humanDOR (P41143 whole entry): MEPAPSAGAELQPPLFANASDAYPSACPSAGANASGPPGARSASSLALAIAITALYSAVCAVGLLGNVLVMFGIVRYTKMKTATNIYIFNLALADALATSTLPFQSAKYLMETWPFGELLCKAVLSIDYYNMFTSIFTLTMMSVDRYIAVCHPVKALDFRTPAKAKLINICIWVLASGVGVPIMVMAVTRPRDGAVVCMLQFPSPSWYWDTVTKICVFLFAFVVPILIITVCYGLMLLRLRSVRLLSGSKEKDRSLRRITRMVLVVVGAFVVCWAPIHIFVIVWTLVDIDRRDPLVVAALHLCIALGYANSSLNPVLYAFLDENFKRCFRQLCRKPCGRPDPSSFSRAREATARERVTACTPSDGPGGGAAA

As to `CC(Cc1csc2ccccc12)NC(=O)NC[C@H](Cc1ccc(O)cc1)N(C)C` (mixture of isomers) [DD 63L-RS], the Ki (in general, a measure of affinity in units of concentration, obtained from inhibition or displacement) at humanDOR amounted to 44 ± 1.4 nM; at humanDOR (setting [3]), 44 nM; on hKOR (binding affinity Ki [nM] hKOR), 19 nM; on hKOR (hKOR [3H]dyprenorphine Ki) it was 14 ± 0.71 nM; at MOR (binding affinity Ki [nM] hMOR), 14 nM; at MOR (hMOR [3H]dyprenorphine Ki) it was 16 ± 1.4 nM.

For the compound `C[C@H](Cc1ccsc1)NC(=O)NC[C@H](Cc1ccccc1)N(C)C` (stereo in doubt) [BD 127LR], the inhibitory constant (Ki) amounted to 1800 ± 150 nM at humanDOR, 1800 nM at humanDOR (setting [3]), 1300 nM at hKOR (binding affinity Ki [nM] hKOR) and 1300 ± 300 nM on hKOR (hKOR [3H]dyprenorphine Ki).

As to `C[C@H](Cc1ccsc1)NC(=O)NC[C@H](Cc1ccc(O)cc1)N(C)C` [(S,R)-21, 1-[(S)-2-(Dimethylamino)-3-(4-hydroxyphenyl)propyl]-3-((R)-1-(thiophen-3-yl)propan-2-yl)urea], the “Gi/o activation / μOR agonist activity” value at μOR is recorded as “more potent partial agonist of the μOR as compared to (S,S)-21”.

For `C[C@@H](Cc1ccsc1)NC(=O)NC[C@H](Cc1ccccc1)N(C)C` [(S,S)-12, 1-[(S)-2-(Dimethylamino)-3-phenylpropyl]-3-[(S)-1-(thiophen-3-yl)propan-2-yl]urea], on μOR, the “Gi/o activation / μOR agonist activity” value is “most potent and efficacious Gi/o signaling agonist among the four isomers”.

`CN(CCCl)[C@H](CNC(=O)NCCc1ccccc1)Cc1ccc(O)cc1` [DD185, (S)-1-(2-((2-chloroethyl)(methyl)amino)-3-(4-hydroxyphenyl)propyl)-3-phenethylurea] registered a Ki at humanDOR of 360 nM.

`CN(CCO)[C@H](CNC(=O)NCCc1ccccc1)Cc1ccc(O)cc1` [DD186, (S)-1-(2-((2-hydroxyethyl)(methyl)amino)-3-(4-hydroxyphenyl)propyl)-3-phenethylurea]: the Ki came to 1800 nM at humanDOR, 1300 nM on hKOR and 970 nM on MOR.

With `C[C@@H](Cc1ccsc1)NC(=O)NC[C@H](Cc1ccc(O)cc1)N(C)Cc1ccccc1` [DD187, 1-((S)-2-(benzyl(methyl)amino)-3-(4-hydroxyphenyl)propyl)-3-((S)-1-(thiophen-3-yl)propan-2-yl)urea], the Ki on humanDOR is 720 nM; at hKOR it was 210 nM; at MOR, 220 nM.

Consider `COc1ccccc1CCNC(=O)NC[C@H](Cc1ccc(O)cc1)N(C)C` [DD198, (S)-1-(2-(dimethylamino)-3-(4-hydroxyphenyl)propyl)-3-(2-methoxyphenethyl)urea], for which the figures for the Ki on humanDOR, at hKOR (binding affinity Ki [nM] hKOR) and at MOR (binding affinity Ki [nM] hMOR) were 150 nM, 140 nM and 22 nM, respectively.

On to `COc1cccc(CCNC(=O)NC[C@H](Cc2ccc(O)cc2)N(C)C)c1` [DD200, (S)-1-(2-(dimethylamino)-3-(4-hydroxyphenyl)propyl)-3-(3-methoxyphenethyl)urea], for which the figures for the Ki at humanDOR, on hKOR and on MOR were 220 nM, 1300 nM and 110 nM, respectively.

`COc1ccc(CCNC(=O)NC[C@H](Cc2ccc(O)cc2)N(C)C)cc1` [DD201, (S)-1-(2-(dimethylamino)-3-(4-hydroxyphenyl)propyl)-3-(4-methoxyphenethyl)urea]: the Ki stood at 10000 nM on humanDOR, 1500 nM at hKOR and 330 nM at MOR.

With `CN(C)[C@H](CNC(=O)NC(C)(C)Cc1ccsc1)Cc1ccc(O)cc1` [DD 32L, (S)-1-(2-(dimethylamino)-3-(4-hydroxyphenyl)propyl)-3-(2-methyl-1-(thiophen-3-yl)propan-2-yl)urea], the “Gi/o pEC50” value on μOR is 7.629. Besides, the “Arrestin + GRK2 pEC50” value in test [1] is reported as 7.306. For the same compound, in test [2], the “Arrestin pEC50” value is 8.282.

For `CN(C)[C@H](CNC(=O)NC(C)(C)Cc1ccccc1)Cc1ccc(O)cc1` [DD 33L, (S)-1-(2-(dimethylamino)-3-(4-hydroxyphenyl)propyl)-3-(2-methyl-1-phenylpropan-2-yl)urea], the “Gi/o pEC50” value at μOR stood at 7.008. Besides, the “Arrestin + GRK2 pEC50” value in test [1] was 6.874.

As for `C[C@@H](Cc1ccsc1)NC(=O)NC[C@H](Cc1cccc(O)c1)N(C)C` [DD 47LS, 1-((S)-2-(dimethylamino)-3-(3-hydroxyphenyl)propyl)-3-((S)-1-(thiophen-3-yl)propan-2-yl)urea], on μOR, the “Gi/o pEC50” value is given as 7.77. The “Arrestin + GRK2 pEC50” value in test [1] came out at 6.676. The “Arrestin pEC50” value in test [2] came to 6.447.

For `C[C@H](NC(=O)NC[C@H](Cc1ccc(O)cc1)N(C)C)c1ccccc1` [DD 53LS, 1-((S)-2-(dimethylamino)-3-(4-hydroxyphenyl)propyl)-3-((S)-1-phenylethyl)urea], the “Gi/o pEC50” value at μOR is on record as 8.512. In addition, in test [1], the “Arrestin + GRK2 pEC50” value was determined as 7.059. Further, in test [2], the “Arrestin pEC50” value was 7.168.

As to `C[C@@H](Cc1ccccc1)NC(=O)NC[C@H](Cc1ccc(O)cc1)N(C)C` [DD 61L-B, 1-((S)-2-(dimethylamino)-3-(4-hydroxyphenyl)propyl)-3-((S)-1-phenylpropan-2-yl)urea], at μOR, the “Gi/o pEC50” value came to 7.45. Further, the “Arrestin + GRK2 pEC50” value in test [1] was 6.556. Besides, the “Arrestin pEC50” value in test [2] came to 7.075.

In the case of `C[C@@H](Cc1csc2ccccc12)NC(=O)NC[C@H](Cc1ccc(O)cc1)N(C)C` [DD 63L-LB], the “Gi/o pEC50” value at μOR was found to be 8.244. In addition, the “Arrestin + GRK2 pEC50” value in test [1] was 7.086. For the same compound, in test [2], the “Arrestin pEC50” value was 6.401.

As to `CN(C)[C@H](CNC(=S)NCCc1ccsc1)Cc1ccc(O)cc1` [DD 81, (S)-1-(2-(dimethylamino)-3-(4-hydroxyphenyl)propyl)-3-(2-(thiophen-3-yl)ethyl)thiourea], at μOR, the “Gi/o pEC50” value is given as 7.821. Moreover, in test [1], the “Arrestin + GRK2 pEC50” value stood at 7.173. In addition, in test [2], the “Arrestin pEC50” value was found to be 7.604.

For `CN(C)[C@H](CNC(=O)NCCc1ccccc1)Cc1ccc(O)cc1` [DD 90], the “Gi/o pEC50” value on μOR was 8.371. Moreover, the “Arrestin + GRK2 pEC50” value in test [1] was determined as 6.841. Moreover, the “Arrestin pEC50” value in test [2] is 7.272.

`C=CCN(CC(Cc1ccccc1)N(C)C)C(=O)N[C@@H](C)Cc1ccsc1` (stereo partly shown) [DD 93A]: on humanDOR (setting [3]), the Ki is approximately 15000 nM.

Take `C=CCN(CC(Cc1ccccc1)N(C)C)C(=O)N[C@H](C)Cc1ccsc1` (stereo partly shown) [DD 93B]: on humanDOR (setting [3]), the Ki is approximately 15000 nM.

On to `CN(CCc1ccccc1)C(=O)NC[C@H](Cc1ccc(O)cc1)N(C)C` [DD 102], for which the “Gi/o pEC50” value at μOR turned out to be 7.421. Further, the “Arrestin + GRK2 pEC50” value in test [1] worked out at 5.824. In test [2], the “Arrestin pEC50” value is listed as 5.703.

Turning to `CN(C[C@H](Cc1ccc(O)cc1)N(C)C)C(=O)NCCc1ccccc1` [DD 108], the “Gi/o pEC50” value on μOR was found to be 7.455. In addition, the “Arrestin + GRK2 pEC50” value in test [1] turned out to be 5.826. In test [2], the “Arrestin pEC50” value turned out to be 5.327.

Take `C[C@@H](Cc1ccsc1)NC(=O)NC[C@H](Cc1ccc(O)c(CO)c1)N(C)C` [DD 131, 1-((S)-2-(dimethylamino)-3-(4-hydroxy-3-(hydroxymethyl)phenyl)propyl)-3-((S)-1-(thiophen-3-yl)propan-2-yl)urea]: the “Gi/o pEC50” value on μOR was 8.1. The “Arrestin + GRK2 pEC50” value in test [1] is recorded as 6.671. In test [2], the “Arrestin pEC50” value was found to be 6.639.

Compound `CN(C)[C@H](CNC(=O)NCCCN1C(=O)C=CC1=O)Cc1ccc(O)cc1` [DD 138, (S)-1-(2-(dimethylamino)-3-(4-hydroxyphenyl)propyl)-3-(3-(2,5-dioxo-2,5-dihydro-1H-pyrrol-1-yl)propyl)urea] displayed a Ki at MOR (binding affinity Ki [nM] hMOR) of 580 nM.

At humanDOR, `CN(C)[C@H](CNC(=O)NCCc1cn(Cc2ccccc2)nn1)Cc1ccc(O)cc1` [DD 154, (S)-1-(2-(1-benzyl-1H-1,2,3-triazol-4-yl)ethyl)-3-(2-(dimethylamino)-3-(4-hydroxyphenyl)propyl)urea] displayed a Ki of 580 nM.

On to `CN(C)[C@H](CNC(=O)NCCc1cn(CCOCCOCCN=[N+]=[N-])nn1)Cc1ccc(O)cc1` [DD 161, (S)-1-(2-(1-(2-(2-(2-azidoethoxy)ethoxy)ethyl)-1H-1,2,3-triazol-4-yl)ethyl)-3-(2-(dimethylamino)-3-(4-hydroxyphenyl)propyl)urea], for which the Ki on humanDOR came out at 3000 nM; on hKOR, 1200 nM.

Regarding `CN(C)[C@H](CNC(=O)NCCc1cn(CCOCCOCCOCCN=[N+]=[N-])nn1)Cc1ccc(O)cc1` [DD 165, (S)-1-(2-(1-(2-(2-(2-(2-azidoethoxy)ethoxy)ethoxy)ethyl)-1H-1,2,3-triazol-4-yl)ethyl)-3-(2-(dimethylamino)-3-(4-hydroxyphenyl)propyl)urea], the Ki was found to be 3900 nM at humanDOR and 2900 nM on hKOR (binding affinity Ki [nM] hKOR).

Turning to `CN(C)[C@H](CNC(=O)NCCc1cn(CCOCCOCCOCCOCCOCCNC(=O)CCCC[C@@H]2SC[C@@H]3NC(=O)N[C@@H]32)nn1)Cc1ccc(O)cc1` [DD 170, N-(17-(4-(2-(3-((S)-2-(dimethylamino)-3-(4-hydroxyphenyl)propyl)ureido)ethyl)-1H-1,2,3-triazol-1-yl)-3,6,9,12,15-pentaoxaheptadecyl)-5-((3aS,4S,6aR)-2-oxohexahydro-1H-thieno[3,4-d]imidazol-4-yl)pentanamide], at MOR (read-out: binding affinity Ki [nM] hMOR), the Ki is 13000 nM.

Regarding `CN(CC1CC1)[C@H](CNC(=O)NCCc1ccccc1)Cc1ccc(O)cc1` [DD 184], the “Gi/o pEC50” value at μOR is reported as 6.253.

For the compound `CN(C)[C@H](CNC(=O)NCCc1ccccc1F)Cc1ccc(O)cc1` [DDLM-08, (S)-1-(2-(dimethylamino)-3-(4-hydroxyphenyl)propyl)-3-(2-fluorophenethyl)urea], the Ki on humanDOR worked out at 53 nM; on hKOR (binding affinity Ki [nM] hKOR), 440 nM; on MOR (binding affinity Ki [nM] hMOR) it was 43 nM.

Turning to `CN(C)[C@H](CNC(=O)NCCc1cccc(F)c1)Cc1ccc(O)cc1` [DDLM-10, (S)-1-(2-(dimethylamino)-3-(4-hydroxyphenyl)propyl)-3-(3-fluorophenethyl)urea], the Ki on humanDOR worked out at 250 nM; on hKOR (binding affinity Ki [nM] hKOR) it was 170 nM; on MOR (binding affinity Ki [nM] hMOR) it was 36 nM.

(Values after patent US10702498B2 (priority 2015, dated 2020).)
